“And” between values parts separate entries of the source, which are not always exact repeats. Identical values can stand only once. Like-named read-outs stand apart in the source and are kept apart here.
Experiments:
[1] = tested on: human prostate PC3-mm2 tumor cell line; assay: In vitro cell culture growth assay (MTS), PC3-mm2; assay type: cell-based; details: Homo sapiens, PC3MM2, 72 h
[2] = target: PI3K-γ (Homo sapiens, UniProt P48736); assay: PI3K-gamma fluorescence polarization assay; details: read-out: IC50 PI3Kγ
[3] = target: Human mTOR (FLAG-TOR) (Homo sapiens, UniProt P42345); assay: mTOR kinase assay (DELFIA format, purified enzyme); assay type: biochemical; details: read-out: IC50 mTOR
[4] = target: PI3K-α (Homo sapiens, UniProt P42336); assay: PI3K-alpha fluorescence polarization assay; details: read-out: IC50 PI3Kα
[5] = MTS cell growth assay, three days after drug treatment, PC3-mm2 cells, read-out: IC50 PC3-mm2
[6] = MTS cell growth assay, three days after drug treatment, read-out: IC50 PC3-mm2

Chain of Human mTOR (FLAG-TOR) (P42345 1360-2549 limits assumed): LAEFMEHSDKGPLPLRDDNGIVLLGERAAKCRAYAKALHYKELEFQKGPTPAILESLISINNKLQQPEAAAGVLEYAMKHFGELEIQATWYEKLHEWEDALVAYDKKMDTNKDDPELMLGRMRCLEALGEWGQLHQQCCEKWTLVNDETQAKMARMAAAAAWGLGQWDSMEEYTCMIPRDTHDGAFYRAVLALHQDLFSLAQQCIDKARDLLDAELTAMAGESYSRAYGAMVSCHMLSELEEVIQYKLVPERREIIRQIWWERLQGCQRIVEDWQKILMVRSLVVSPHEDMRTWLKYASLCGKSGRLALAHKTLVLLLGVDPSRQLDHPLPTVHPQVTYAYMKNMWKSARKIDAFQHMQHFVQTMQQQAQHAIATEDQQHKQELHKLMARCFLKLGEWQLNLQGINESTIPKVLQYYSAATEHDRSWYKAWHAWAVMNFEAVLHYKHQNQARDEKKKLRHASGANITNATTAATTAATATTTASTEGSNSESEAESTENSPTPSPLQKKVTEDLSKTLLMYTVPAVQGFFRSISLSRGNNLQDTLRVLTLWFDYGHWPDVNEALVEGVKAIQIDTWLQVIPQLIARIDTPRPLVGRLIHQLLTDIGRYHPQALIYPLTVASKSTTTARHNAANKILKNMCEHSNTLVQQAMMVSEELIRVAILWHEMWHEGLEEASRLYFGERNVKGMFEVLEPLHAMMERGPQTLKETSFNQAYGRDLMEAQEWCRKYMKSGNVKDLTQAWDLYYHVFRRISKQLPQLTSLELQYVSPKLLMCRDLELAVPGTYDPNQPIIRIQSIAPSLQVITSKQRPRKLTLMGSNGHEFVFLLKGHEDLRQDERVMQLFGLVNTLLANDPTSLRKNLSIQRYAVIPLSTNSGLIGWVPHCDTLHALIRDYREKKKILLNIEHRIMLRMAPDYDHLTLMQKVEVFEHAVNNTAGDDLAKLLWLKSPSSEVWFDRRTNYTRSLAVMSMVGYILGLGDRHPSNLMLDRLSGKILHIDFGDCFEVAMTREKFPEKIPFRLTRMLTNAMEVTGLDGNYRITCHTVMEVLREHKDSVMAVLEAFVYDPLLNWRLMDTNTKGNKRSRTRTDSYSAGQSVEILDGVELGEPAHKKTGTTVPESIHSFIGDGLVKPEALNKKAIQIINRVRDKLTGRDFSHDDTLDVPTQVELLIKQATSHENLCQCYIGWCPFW
Chain of PI3K-α (P42336 whole entry, species assumed): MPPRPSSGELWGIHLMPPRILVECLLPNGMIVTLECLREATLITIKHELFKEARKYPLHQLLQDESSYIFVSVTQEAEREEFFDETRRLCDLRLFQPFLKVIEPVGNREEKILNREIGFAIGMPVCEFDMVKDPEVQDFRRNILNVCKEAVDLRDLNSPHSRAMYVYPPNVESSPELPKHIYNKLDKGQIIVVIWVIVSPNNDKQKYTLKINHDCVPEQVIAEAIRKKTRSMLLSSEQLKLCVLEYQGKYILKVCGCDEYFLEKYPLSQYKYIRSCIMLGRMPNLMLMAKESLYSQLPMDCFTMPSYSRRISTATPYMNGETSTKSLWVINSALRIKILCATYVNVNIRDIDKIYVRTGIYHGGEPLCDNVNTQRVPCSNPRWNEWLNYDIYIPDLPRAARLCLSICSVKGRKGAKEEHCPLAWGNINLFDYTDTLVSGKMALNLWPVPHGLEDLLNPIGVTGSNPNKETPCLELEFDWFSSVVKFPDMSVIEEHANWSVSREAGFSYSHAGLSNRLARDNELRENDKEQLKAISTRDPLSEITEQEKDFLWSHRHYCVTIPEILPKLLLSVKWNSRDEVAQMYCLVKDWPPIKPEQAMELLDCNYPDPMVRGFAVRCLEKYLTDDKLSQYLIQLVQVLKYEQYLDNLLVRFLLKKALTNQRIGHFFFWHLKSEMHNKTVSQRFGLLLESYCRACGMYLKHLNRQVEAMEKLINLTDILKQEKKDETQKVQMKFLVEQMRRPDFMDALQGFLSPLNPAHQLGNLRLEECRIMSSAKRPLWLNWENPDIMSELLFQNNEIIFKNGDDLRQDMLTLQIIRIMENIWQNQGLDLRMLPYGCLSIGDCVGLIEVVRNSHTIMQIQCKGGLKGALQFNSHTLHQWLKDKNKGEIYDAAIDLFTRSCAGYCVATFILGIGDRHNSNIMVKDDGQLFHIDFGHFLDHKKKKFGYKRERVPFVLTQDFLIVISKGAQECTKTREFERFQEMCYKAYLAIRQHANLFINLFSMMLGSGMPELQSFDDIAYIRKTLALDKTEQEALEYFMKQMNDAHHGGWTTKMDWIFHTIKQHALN
Chain of PI3K-α (P27986 whole entry partner, species assumed): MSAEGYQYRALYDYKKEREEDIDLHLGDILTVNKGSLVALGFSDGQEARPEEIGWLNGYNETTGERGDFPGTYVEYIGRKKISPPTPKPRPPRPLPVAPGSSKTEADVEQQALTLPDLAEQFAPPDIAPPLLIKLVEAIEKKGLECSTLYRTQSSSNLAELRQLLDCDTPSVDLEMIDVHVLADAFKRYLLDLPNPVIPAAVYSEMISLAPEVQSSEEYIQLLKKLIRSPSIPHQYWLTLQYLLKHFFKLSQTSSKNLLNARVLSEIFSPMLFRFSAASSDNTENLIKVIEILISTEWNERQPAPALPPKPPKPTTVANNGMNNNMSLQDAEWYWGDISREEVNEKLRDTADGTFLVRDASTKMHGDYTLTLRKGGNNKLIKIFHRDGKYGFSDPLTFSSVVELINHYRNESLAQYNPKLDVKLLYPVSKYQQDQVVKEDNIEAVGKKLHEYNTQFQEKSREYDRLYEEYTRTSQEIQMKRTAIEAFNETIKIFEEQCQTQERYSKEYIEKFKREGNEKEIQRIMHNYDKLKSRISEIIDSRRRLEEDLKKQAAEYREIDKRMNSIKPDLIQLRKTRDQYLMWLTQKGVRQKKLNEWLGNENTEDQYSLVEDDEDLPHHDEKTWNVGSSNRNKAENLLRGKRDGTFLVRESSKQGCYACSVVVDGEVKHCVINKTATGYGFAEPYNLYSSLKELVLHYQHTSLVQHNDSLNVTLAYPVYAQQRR
Chain of PI3K-γ (P48736 whole entry, species assumed): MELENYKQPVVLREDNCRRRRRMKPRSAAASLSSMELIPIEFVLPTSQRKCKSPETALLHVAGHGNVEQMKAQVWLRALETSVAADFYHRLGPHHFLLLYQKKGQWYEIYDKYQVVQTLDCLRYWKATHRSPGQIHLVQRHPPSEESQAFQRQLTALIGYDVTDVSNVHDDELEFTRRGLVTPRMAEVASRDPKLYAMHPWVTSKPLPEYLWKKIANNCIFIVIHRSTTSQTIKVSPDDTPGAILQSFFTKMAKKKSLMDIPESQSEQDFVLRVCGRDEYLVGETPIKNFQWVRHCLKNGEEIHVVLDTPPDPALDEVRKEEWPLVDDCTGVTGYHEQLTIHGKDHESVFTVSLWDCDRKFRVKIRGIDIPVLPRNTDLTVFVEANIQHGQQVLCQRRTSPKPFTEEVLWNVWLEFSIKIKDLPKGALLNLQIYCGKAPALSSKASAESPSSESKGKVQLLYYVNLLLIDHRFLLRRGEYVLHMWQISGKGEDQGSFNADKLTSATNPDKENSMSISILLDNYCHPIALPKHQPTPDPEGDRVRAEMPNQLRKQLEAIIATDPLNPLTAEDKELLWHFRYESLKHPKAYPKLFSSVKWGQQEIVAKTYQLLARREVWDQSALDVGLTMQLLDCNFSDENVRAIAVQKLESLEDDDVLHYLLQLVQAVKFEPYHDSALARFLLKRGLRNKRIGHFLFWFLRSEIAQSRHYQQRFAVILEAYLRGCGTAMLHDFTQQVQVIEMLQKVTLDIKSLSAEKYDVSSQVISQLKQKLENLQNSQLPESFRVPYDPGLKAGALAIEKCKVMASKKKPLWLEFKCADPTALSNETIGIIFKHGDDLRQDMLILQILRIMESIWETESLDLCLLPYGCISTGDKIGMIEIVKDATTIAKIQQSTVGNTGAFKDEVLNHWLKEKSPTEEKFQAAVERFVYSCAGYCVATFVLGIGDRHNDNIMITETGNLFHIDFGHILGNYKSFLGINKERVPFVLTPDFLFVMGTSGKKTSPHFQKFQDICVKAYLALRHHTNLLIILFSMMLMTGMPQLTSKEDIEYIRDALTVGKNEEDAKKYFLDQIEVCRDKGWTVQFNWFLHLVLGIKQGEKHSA

Row | Molecule | IC50 [2] [nM] | IC50 [3] | IC50 [4] [nM] | other results
1 | O=C(Nc1ccc(C(=O)N2CCC(N3CCCCC3)CC2)cc1)Nc1ccc(-c2nc(N3CCOCC3)nc(N3C4CCC3COC4)n2)cc1 [Example 760, 1-[4-(1,4′-bipiperidin-1′-ylcarbonyl)phenyl]-3-{4-[4-morpholin-4-yl-6-(3-oxa-8-azabicyclo[3.2.1]oct-8-yl)-1,3,5-triazin-2-yl]phenyl}urea] | 28.3 | 0.21 nM | 4.3 | IC50 [1, 5]: 4 nM
2 | O=C(Nc1ccncc1)Nc1ccc(-c2nc(N3CCCC3)nc(N3CC4CCC(C3)O4)n2)cc1 [Example 80, 1-(4-(4-(8-oxa-3-azabicyclo[3.2.1]octan-3-yl)-6-(pyrrolidin-1-yl)-1,3,5-triazin-2-yl)phenyl)-3-(pyridin-4-yl)urea] | 2120 | 7.15 nM | 851 | IC50 [1, 6]: 320 nM
3 | CCCCc1nc(-c2ccc(NC(=O)Nc3ccc(C(=O)N(C)CCN(C)C)cc3)cc2)nc(N2CCOCC2)n1 [Example 198, 4-({[4-(4-butyl-6-morpholin-4-yl-1,3,5-triazin-2-yl)phenyl]carbamoyl}amino)-N-[2-(dimethylamino)ethyl]-N-methylbenzamide] | 33 | 2 nM | 2 | IC50 [1, 6]: 43 nM
4 | O=C(Nc1ccc(C(=O)NCCN2CCCCC2)cc1)Nc1ccc(-c2nc(N3CCOCC3)nc(N3CCOCC3)n2)cc1 [Example 151, 4-({[4-(4,6-dimorpholin-4-yl-1,3,5-triazin-2-yl)phenyl]carbamoyl}amino)-N-(2-piperidin-1-ylethyl)benzamide] | 8120 | 7 nM | 0.6 | IC50 [1, 6]: 14 nM
5 | CNC(=O)c1ccc(NC(=O)Nc2ccc(-c3nc(N4CCOCC4)nc(N4CCOCC4)n3)cc2)cc1 [Example 70, 4-(3-(4-(4,6-dimorpholino-1,3,5-triazin-2-yl)phenyl)ureido)-N-methylbenzamide] |  | 0.7 nM |  | IC50 ([1]; read-out: IC50 PC3-mm2, MTS cell growth assay, three days after drug treatment): 24 nM
6 | CCc1nc(-c2ccc(NC(=O)Nc3ccc(C(=O)Nc4ccc(N5CCN(C)CC5)cc4)cc3)cc2)nc(N2CCOCC2)n1 [Example 251, 4-({[4-(4-ethyl-6-morpholin-4-yl-1,3,5-triazin-2-yl)phenyl]carbamoyl}amino)-N-[4-(4-methylpiperazin-1-yl)phenyl]benzamide] | 21 | 6 nM | 2 | IC50 [1, 6]: 65 nM
7 | CN(C)C1CCN(C(=O)c2ccc(NC(=O)Nc3ccc(-c4nc(N5CCOCC5)nc(N5CCOCC5)n4)cc3)cc2)C1 (stereo not drawn) [Example 167, 1-(4-{[3-(dimethylamino)pyrrolidin-1-yl]carbonyl}phenyl)-3-[4-(4,6-dimorpholin-4-yl-1,3,5-triazin-2-yl)phenyl]urea] |  | 0.68 nM | 0.8 | IC50 [1, 6]: 10 nM
8 | CN(C)C1CCN(C(=O)c2ccc(NC(=O)Nc3ccc(-c4nc(-c5cccs5)nc(N5CCOCC5)n4)cc3)cc2)CC1 [Example 568, 1-(4-{[4-(dimethylamino)piperidin-1-yl]carbonyl}phenyl)-3-{4-[4-morpholin-4-yl-6-(2-thienyl)-1,3,5-triazin-2-yl]phenyl}urea] |  | 10 nM | 3.5 | IC50 [1, 5]: 107 nM
9 | CC(C)c1nc(-c2ccc(NC(=O)Nc3ccc(C(=O)N4CCN(C)CC4)cc3)cc2)nc(N2CCOCC2)n1 [Example 304, 1-{4-[4-(1-methylethyl)-6-morpholin-4-yl-1,3,5-triazin-2-yl]phenyl}-3-{4-[(4-methylpiperazin-1-yl)carbonyl]phenyl}urea] |  | 2.5 nM and 4.5 nM | 2 | IC50 [1, 5]: 39.3 nM; IC50 [1, 6]: 39.3 nM; IC50 ([4]; listed as 486): 1.1 nM
10 | CCc1nc(-c2ccc(NC(=O)Nc3cccc(C(=O)N(C)CCN(C)C)c3)cc2)nc(N2CCOCC2)n1 [Example 588, N-[2-(dimethylamino)ethyl]-3-({[4-(4-ethyl-6-morpholin-4-yl-1,3,5-triazin-2-yl)phenyl]carbamoyl}amino)-N-methylbenzamide] | 2250 | 54 nM | 524 | 
11 | CCc1nc(-c2ccc(NC(=O)Nc3cccc(C(=O)OC)c3)cc2)nc(N2CCOCC2)n1 [Example 581, methyl 3-({[4-(4-ethyl-6-morpholin-4-yl-1,3,5-triazin-2-yl)phenyl]carbamoyl}amino)benzoate] | 461 | 37 nM | 114 | 
12 | CCCC1CCN(C(=O)c2ccc(NC(=O)Nc3ccc(-c4nc(N5CCOCC5)nc(N5CCN(C(=O)N(C)C)CC5)n4)cc3)cc2)CC1 [Example 645, N,N-dimethyl-4-(4-morpholin-4-yl-6-{4-[({4-[(4-propylpiperidin-1-yl)carbonyl]phenyl}carbamoyl)amino]phenyl}-1,3,5-triazin-2-yl)piperazine-1-carboxamide] | 230 | 120 nM | 105 | 
13 | CCN1CCN(C(=O)c2ccc(NC(=O)Nc3ccc(-c4nc(N5C6CCC5COC6)nc(N5CCOC[C@@H]5C)n4)cc3)cc2)CC1 [Example 836, 1-{4-[(4-ethylpiperazin-1-yl)carbonyl]phenyl}-3-(4-{4-[(3S)-3-methylmorpholin-4-yl]-6-(3-oxa-8-azabicyclo[3.2.1]oct-8-yl)-1,3,5-triazin-2-yl}phenyl)urea] | 41 | 665 nM | 5.1 | 
14 | C[C@H]1COCCN1c1nc(-c2ccc(NC(=O)Nc3ccc(C(=O)O)cc3)cc2)nc(N2C3CCC2COC3)n1 [Example 832, 4-{[(4-{4-[(3S)-3-methylmorpholin-4-yl]-6-(3-oxa-8-azabicyclo[3.2.1]oct-8-yl)-1,3,5-triazin-2-yl}phenyl)carbamoyl]amino}benzoic acid] | 342 | 165 nM | 61.5 | 
15 | COC(=O)c1cccc(NC(=O)Nc2ccc(-c3nc(-c4ccccc4)nc(N4CCOCC4)n3)cc2)c1 [Example 586, methyl 3-({[4-(4-morpholin-4-yl-6-phenyl-1,3,5-triazin-2-yl)phenyl]carbamoyl}amino)benzoate] | 1250 | 365 nM | 947 | 
16 | CN(C)CCNC(=O)Nc1ccc(-c2nc(N3CCOCC3)nc(N3CCC4(CC3)OCCO4)n2)cc1 [Example 46, 1-[2-(dimethylamino)ethyl]-3-{4-[4-(1,4-dioxa-8-azaspiro[4.5]dec-8-yl)-6-morpholin-4-yl-1,3,5-triazin-2-yl]phenyl}urea] |  | 24 nM and 20 nM |  | IC50 ([2]; listed as 136): 4920 nM; IC50 ([2]; listed as 711): 4920 nM; IC50 ([4]; listed as 136): 208 nM; IC50 ([4]; listed as 711): 208 nM
17 | C[C@H]1COCCN1c1nc(-c2ccc(NC(=O)Nc3ccc(C(=O)O)cc3)cc2)nc(N2CCOCC2)n1 [Example 619, 4-{[(4-{4-[(3S)-3-methylmorpholin-4-yl]-6-morpholin-4-yl-1,3,5-triazin-2-yl}phenyl)carbamoyl]amino}benzoic acid] | 137 | 1 nM | 33 | 
18 | CCS(=O)(=O)N1CCN(c2nc(-c3ccc(NC(=O)Nc4ccc(C(=O)NCCCN(C)C)cc4)cc3)nc(N3CCOCC3)n2)CC1 [Example 653, N-[3-(dimethylamino)propyl]-4-{[(4-{4-[4-(ethylsulfonyl)piperazin-1-yl]-6-morpholin-4-yl-1,3,5-triazin-2-yl}phenyl)carbamoyl]amino}benzamide] | 34 | 7 nM | 4.1 | 
19 | 1-(4-(4-(3-oxa-8-azabicyclo[3.2.1]octan-8-yl)-6-(piperidin-4-ylamino)-1,3,5-triazin-2-yl)phenyl)-3-ethylurea [Example 363] | 7140 | 0.77 nM | 1100 | 
20 | CC(C)NC(=O)Nc1ccc(-c2nc(N3CCOCC3)nc(N3C4CCC3COC4)n2)cc1 [Example 44, 1-isopropyl-3-{4-[4-morpholin-4-yl-6-(3-oxa-8-azabicyclo[3.2.1]oct-8-yl)-1,3,5-triazin-2-yl]phenyl}urea] | 9500 | 13.5 nM | 1580 | 
21 | CN(C)[C@@H]1CCN(C(=O)c2ccc(NC(=O)Nc3ccc(-c4nc(N5CCOCC5)nc(N5C6CCC5COC6)n4)cc3)cc2)C1 [Example 825, 1-(4-{[(3R)-3-(dimethylamino)pyrrolidin-1-yl]carbonyl}phenyl)-3-{4-[4-morpholin-4-yl-6-(3-oxa-8-azabicyclo[3.2.1]oct-8-yl)-1,3,5-triazin-2-yl]phenyl}urea] | 13 | 185 nM | 2 | IC50 ([4]; listed as 828): 2.05 nM
22 | C[C@@H]1COCCN1c1nc(-c2ccc(NC(=O)Nc3ccncc3)cc2)nc(N2CCOC[C@H]2C)n1 [Example 397, 1-(4-(4,6-bis((R)-3-methylmorpholino)-1,3,5-triazin-2-yl)phenyl)-3-(pyridin-4-yl)urea] | 2070 | 0.16 nM | 173 | 
23 | O=C(Nc1ccc(-c2nc(-c3ccccc3)nc(N3CCOCC3)n2)cc1)Nc1cccc(C(=O)O)c1 [Example 590, 3-({[4-(4-morpholin-4-yl-6-phenyl-1,3,5-triazin-2-yl)phenyl]carbamoyl}amino)benzoic acid] | 404 | 49 nM | 343 | 
24 | COC(=O)c1cccc(NC(=O)Nc2ccc(-c3nc(-c4cccs4)nc(N4CCOCC4)n3)cc2)c1 [Example 582, methyl 3-({[4-(4-morpholin-4-yl-6-thiophen-2-yl-1,3,5-triazin-2-yl)phenyl]carbamoyl}amino)benzoate] | 1090 | 230 nM | 513 | 
